# According to PubChem BioAssay (NCI):
#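 GI50 = concentration required for 50% inhibition of growth. The concentration for full growth arrest is given as TGI.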
# Experiments:
# Test in all cases: inhibition of tumour cell growth, NCI panel, 384-well format
# [1] = system: SK-MEL-5 melanoma
# [2] = system: MALME-3M melanoma
# [3] = system: SNB-75 CNS
# [4] = system: M14 melanoma
# [5] = system: SF-295 CNS
# [6] = system: SF-539 CNS
# [7] = system: HOP-92 NSCLC
# [8] = system: RPMI-8226 leukemia
# [9] = system: SK-MEL-28 melanoma
# [10] = system: HCT-116 colon
# [11] = system: 786-0 renal
# [12] = system: NCI-H23 lung
# [13] = system: EKVX NSCLC
# [14] = system: SR leukemia
# [15] = system: SN12C renal
# [16] = system: SW-620 colon
# [17] = system: NCI-H226 lung
# [18] = system: SNB-19 CNS
# [19] = system: NCI-H522 lung
# [20] = system: CCRF-CEM leukemia
# [21] = system: CAKI-1 renal
# [22] = system: MDA-MB-435 melanoma
# [23] = system: OVCAR-3 ovarian
# [24] = system: KM12 colon
# [25] = system: SF-268 CNS
# [26] = system: NCI/ADR-RES ovarian
# [27] = system: NCI-H460 NSCLC
# [28] = system: OVCAR-5 ovarian
structure (smiles),measurement,setting,value
CCN1C(=O)N(c2c(F)c(OC)cc(OC)c2F)Cc2cnc3[nH]c(CN4CCOCC4)cc3c21,GI50,[1],5.75 µM
same,TGI,[1],> 100 µM
same,GI50,[2],4.24 µM
same,TGI,[2],> 30.1 µM
same,GI50,[3],22.9 nM
same,TGI,[3],6.52 µM
same,GI50,[4],5.19 µM
same,TGI,[4],> 100 µM
same,GI50,[5],4.62 µM
same,TGI,[5],47.4 µM
same,GI50,[6],3.55 µM
same,TGI,[6],> 44.5 µM
same,GI50,[7],3.5 µM
same,TGI,[7],23.6 µM
same,GI50,[8],2110 nM
same,TGI,[8],6.34 µM
same,GI50,[9],> 100 µM
same,TGI,[9],> 100 µM
same,GI50,[10],3.84 µM
same,TGI,[10],> 100 µM
same,GI50,[11],6.99 µM
same,TGI,[11],> 100 µM
same,GI50,[12],> 23.3 µM
same,TGI,[12],> 100 µM
same,GI50,[13],> 81 µM
same,TGI,[13],> 100 µM
same,GI50,[14],2670 nM
same,TGI,[14],8.35 µM
same,GI50,[15],5.32 µM
same,TGI,[15],> 100 µM
same,GI50,[16],7.31 µM
same,TGI,[17],9.91 µM
same,GI50,[18],> 100 µM
same,TGI,[18],> 100 µM
same,GI50,[19],> 26.1 µM
same,TGI,[19],> 100 µM
same,GI50,[20],5.26 µM
same,GI50,[21],1030 nM
same,TGI,[21],> 31.4 µM
same,GI50,[22],> 100 µM
same,TGI,[22],> 100 µM
same,GI50,[23],5.94 µM
same,TGI,[23],> 31.6 µM
same,GI50,[24],9.71 µM
same,TGI,[24],> 31.6 µM
same,GI50,[25],5.25 µM
same,TGI,[25],16.9 µM
same,GI50,[26],4.51 µM
same,TGI,[26],> 100 µM
same,GI50,[27],3.48 µM
same,TGI,[27],> 31.6 µM
same,GI50,[28],> 73.3 µM
